One test has as its target T1, D4 (Homo sapiens, UniProt P21917).
T1 construct: expressed in transfected cells; host or cells: CHO or murine mesencephalic neuronal NM9D (sic)
T1 sequence (P21917 1-419): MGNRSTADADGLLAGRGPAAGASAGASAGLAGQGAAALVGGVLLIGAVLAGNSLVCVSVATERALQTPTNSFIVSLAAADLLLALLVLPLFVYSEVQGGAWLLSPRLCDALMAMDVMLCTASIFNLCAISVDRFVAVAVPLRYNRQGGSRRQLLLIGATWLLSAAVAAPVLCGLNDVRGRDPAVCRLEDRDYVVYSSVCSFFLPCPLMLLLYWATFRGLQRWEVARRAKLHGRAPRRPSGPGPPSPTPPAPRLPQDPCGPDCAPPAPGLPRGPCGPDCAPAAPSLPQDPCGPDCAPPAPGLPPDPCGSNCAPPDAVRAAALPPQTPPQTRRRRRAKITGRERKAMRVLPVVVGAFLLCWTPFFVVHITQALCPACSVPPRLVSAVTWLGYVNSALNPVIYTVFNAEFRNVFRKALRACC
In words: Binding to dopaminergic receptors in cell cultures, displacement of [3H]-spiperone, D4. The settings on record: CHO or NM9D cell membranes; [3H]-spiperone 0.2 nM; non specific (+)-butaclamol 1 μM; Cheng and Prusoff; read-out: Receptor binding (Ki nM) D4. On the procedure:
(§1) Test for evaluating the bindings to dopaminergic receptors in cell cultures
(§2) Chinese hamster ovary cells (CHO) transfected with dopaminergic receptor subtypes and murine mesencephalic neuronal (NM9D) expressing the different subtypes of such receptors were used. The cell lines were grown on Petri dishes, in a mixture of DMEM and Ham's F12 medium 1:1 supplemented with 10% foetal bovine serum (FBS), penicillin, streptomycin, geneticin (500 μg/ml) and glutamin in a humidified 5% CO2 atmosphere at 37° C. When cells reached confluence they were washed with 10 ml of PBS (KCl 2.68 mM, KH2 PO4 1.4 mM, NaCl […] and Na2 HPO4 6.4 mM) then 5 ml of lysis buffer (Tris-HCl 10 mM and EDTA 5 mM) were added to each Petri. Cells were scrapped and the solution centrifuged for 20 minutes at 48,000 gravity, 4° C. The pellet was suspended in a minimal amount of lysis buffer and homogenised for 15 seconds. […] Saturation curves were analysed using Ligand® program to have Kd (dissociation constant) and Bmax (number of receptors/mg of protein) (Munson and Rodbar, 1980Anal. Biochem., 107, 220-239). […]
(§3) The compounds of the invention were tested at increasing concentrations for evaluating their binding to the various receptors, expressed as Ki (affinity constant) obtained through the Cheng and Prusoff equation

For the next test, the target named is T2, D3 (Homo sapiens, UniProt P35462).
T2 construct: expressed in transfected cells; host or cells: CHO or murine mesencephalic neuronal NM9D (sic)
T2 sequence (P35462 whole entry): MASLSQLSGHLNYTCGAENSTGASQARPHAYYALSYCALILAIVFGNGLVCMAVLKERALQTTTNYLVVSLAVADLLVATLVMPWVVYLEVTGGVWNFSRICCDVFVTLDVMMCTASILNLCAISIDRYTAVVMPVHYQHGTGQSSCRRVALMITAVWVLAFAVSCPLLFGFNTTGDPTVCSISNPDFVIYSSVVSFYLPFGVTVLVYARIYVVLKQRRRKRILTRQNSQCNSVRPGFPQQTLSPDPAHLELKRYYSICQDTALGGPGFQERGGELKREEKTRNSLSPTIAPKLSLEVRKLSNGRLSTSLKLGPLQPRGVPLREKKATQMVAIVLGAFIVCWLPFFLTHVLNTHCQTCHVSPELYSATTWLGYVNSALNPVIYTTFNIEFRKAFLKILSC
In words: Binding to dopaminergic receptors in cell cultures, displacement of [3H]-spiperone, D3. Particulars: CHO or NM9D cell membranes; [3H]-spiperone 0.3 nM; non specific (+)-butaclamol 1 μM; Cheng and Prusoff; read-out: Receptor binding (Ki nM) D3. As to the method: as §1, §2, §3

Another test concerns the target T3, D5 (Homo sapiens, UniProt P21918).
T3 construct: expressed in transfected cells; host or cells: CHO or murine mesencephalic neuronal NM9D (sic)
In words: Binding to dopaminergic receptors in cell cultures, displacement of [3H]-SCH23390, D5. Particulars: CHO or NM9D cell membranes; [3H]-SCH23390 0.2 nM; non specific (-)cis-flupenthixol 1 μM; Cheng and Prusoff; read-out: Receptor binding (Ki nM) D5. As to the method:
as §1, §2, §3

The target in a further test is T4, D1 (Homo sapiens, UniProt P21728).
T4 construct: expressed in transfected cells; host or cells: CHO or murine mesencephalic neuronal NM9D (sic)
T4 sequence (P21728 whole entry): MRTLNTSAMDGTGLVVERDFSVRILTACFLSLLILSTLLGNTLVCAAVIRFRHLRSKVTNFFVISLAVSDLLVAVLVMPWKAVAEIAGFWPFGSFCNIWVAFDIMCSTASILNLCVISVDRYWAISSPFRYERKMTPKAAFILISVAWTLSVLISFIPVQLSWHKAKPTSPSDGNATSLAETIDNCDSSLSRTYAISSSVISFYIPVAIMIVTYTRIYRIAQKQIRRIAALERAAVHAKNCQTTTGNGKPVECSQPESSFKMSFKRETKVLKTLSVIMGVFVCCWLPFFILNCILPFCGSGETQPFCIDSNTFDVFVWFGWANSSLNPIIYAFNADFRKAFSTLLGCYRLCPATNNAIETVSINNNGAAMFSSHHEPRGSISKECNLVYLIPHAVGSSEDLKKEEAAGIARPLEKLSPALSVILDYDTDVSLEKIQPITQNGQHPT
In words: Binding to dopaminergic receptors in cell cultures, displacement of [3H]-SCH23390, D1. The settings on record: CHO or NM9D cell membranes; [3H]-SCH23390 0.2 nM; non specific (-)cis-flupenthixol 1 μM; Cheng and Prusoff; read-out: Receptor binding (Ki nM) D1. On the procedure:
as §1, §2, §3

The next test concerns the target T5, D2s (Homo sapiens, UniProt P14416).
T5 construct: expressed in transfected cells; host or cells: CHO or murine mesencephalic neuronal NM9D (sic)
In words: Binding to dopaminergic receptors in cell cultures, displacement of [3H]-spiperone, D2s. The settings on record: CHO or NM9D cell membranes; [3H]-spiperone 0.1 nM; non specific (+)-butaclamol 1 μM; Cheng and Prusoff; read-out: Receptor binding (Ki nM) D2s. As to the method: as §1, §2, §3

Where a name gives a salt, the structure may show the parent alone. Bounds are passed on as bounds.

T3 sequence (P21918 whole entry): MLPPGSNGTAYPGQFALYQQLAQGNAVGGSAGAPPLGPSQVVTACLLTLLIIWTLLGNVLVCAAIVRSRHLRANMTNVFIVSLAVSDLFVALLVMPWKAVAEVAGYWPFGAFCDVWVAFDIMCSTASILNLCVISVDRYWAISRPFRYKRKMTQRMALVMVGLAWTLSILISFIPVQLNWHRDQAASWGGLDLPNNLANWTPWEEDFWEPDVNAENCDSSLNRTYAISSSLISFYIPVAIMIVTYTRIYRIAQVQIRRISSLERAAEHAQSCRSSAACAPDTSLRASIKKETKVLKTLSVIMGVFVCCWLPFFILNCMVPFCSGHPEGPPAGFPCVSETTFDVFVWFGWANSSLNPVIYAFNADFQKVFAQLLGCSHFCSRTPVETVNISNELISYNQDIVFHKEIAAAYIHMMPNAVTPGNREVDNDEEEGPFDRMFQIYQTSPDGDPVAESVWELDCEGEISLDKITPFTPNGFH
T5 sequence (P14416 1-414 isoform P14416-2): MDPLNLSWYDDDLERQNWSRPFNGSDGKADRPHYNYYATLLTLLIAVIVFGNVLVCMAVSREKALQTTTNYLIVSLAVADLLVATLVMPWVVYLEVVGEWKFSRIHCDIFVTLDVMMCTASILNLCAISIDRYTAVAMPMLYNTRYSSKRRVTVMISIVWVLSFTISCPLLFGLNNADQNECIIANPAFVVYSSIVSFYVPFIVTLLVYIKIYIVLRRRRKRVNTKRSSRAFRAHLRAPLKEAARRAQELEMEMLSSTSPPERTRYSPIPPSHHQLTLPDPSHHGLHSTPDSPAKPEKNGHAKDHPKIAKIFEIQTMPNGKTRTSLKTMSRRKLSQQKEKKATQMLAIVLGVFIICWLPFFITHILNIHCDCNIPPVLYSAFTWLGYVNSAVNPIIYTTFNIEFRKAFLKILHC

Regarding `CCCN(CCCCCCNCCc1ccc(S(C)(=O)=O)cc1)[C@H]1CCc2c(ccc3sc(=O)[nH]c23)C1` [Compound 2, (S)-6-N-propyl-N-6-[2-(4-methylsulfonylphenyl)ethylamino]hexylamino-4,5,6,7-tetrahydronaphtho(1,2-d)thiazol-2(3H)-one dihydrochloride], the Ki on D4 is above 10000 nM; on D3, 92 nM; on D5, 9270 nM; at D1 it was above 10000 nM; at D2s, 9440 nM.

The record behind these values is patent US6107318A, “Naphthothiazolone derivatives active on the D3 dopaminergic receptor” (Zambon Group S.p.A., priority 1997, dated 2000).
